Measured values as given in ChEMBL document CHEMBL4610090, “Oleanolic Acid Ameliorates Benign Prostatic Hyperplasia by Regulating PCNA-Dependent Cell Cycle Progression In Vivo and In Vitro” (J Nat Prod, 2020).
Active and inactive are the calls of the source. No cut-off for these calls is given here.

Experiments:
Rattus norvegicus [1] = assay: Suppression of prostate tissue weight in Sprague-Dawley rat model of testosterone propionate-induced benign prostatic hyperplasia at 1 mg/kg, ip relative to control; assay type: functional
Rattus norvegicus [2] = assay: Suppression of prostate tissue weight in Sprague-Dawley rat model of testosterone propionate-induced benign prostatic hyperplasia at 10 mg/kg, ip relative to control; assay type: functional
[3] = Toxicity in Sprague-Dawley rat model of testosterone propionate-induced benign prostatic hyperplasia assessed as effect on body weight at 1 to 10 mg/kg, ip; assay type: organism-based; settings: in vivo
[4] = Toxicity in Sprague-Dawley rat model of testosterone propionate-induced benign prostatic hyperplasia assessed as behavioural changes at 1 to 10 mg/kg, ip; assay type: organism-based; settings: in vivo
[5] = Toxicity in Sprague-Dawley rat model of testosterone propionate-induced benign prostatic hyperplasia assessed as effect on animal health at 1 to 10 mg/kg, ip; assay type: organism-based; settings: in vivo
Rattus norvegicus [6] = assay: Suppression of serum DHT level in Sprague-Dawley rat model of testosterone propionate-induced benign prostatic hyperplasia at 1 to 10 mg/kg, ip by ELISA; assay type: functional, organism-based
Rattus norvegicus [7] = assay: Suppression of 5-alpha reductase2 mRNA expression in Sprague-Dawley rat model of testosterone propionate-induced benign prostatic hyperplasia at 1 to 10 mg/kg, ip by qRT-PCR method; assay type: functional, organism-based
Rattus norvegicus [8] = assay: Suppression of prostate epithelial thickness in Sprague-Dawley rat model of testosterone propionate-induced benign prostatic hyperplasia at 1 mg/kg, ip by hematoxylin and eosin staining-based microscopic analysis relative to control; assay type: functional
Rattus norvegicus [9] = assay: Suppression of prostate epithelial thickness in Sprague-Dawley rat model of testosterone propionate-induced benign prostatic hyperplasia at 10 mg/kg, ip by hematoxylin and eosin staining-based microscopic analysis relative to control; assay type: functional
Rattus norvegicus [10] = assay: Downregulation of prostate Bcl2 expression in Sprague-Dawley rat model of testosterone propionate-induced benign prostatic hyperplasia at 1 to 10 mg/kg, ip by Western blot analysis; assay type: functional, organism-based
Rattus norvegicus [11] = assay: Downregulation of prostate Bcl-xL expression in Sprague-Dawley rat model of testosterone propionate-induced benign prostatic hyperplasia at 1 to 10 mg/kg, ip by Western blot analysis; assay type: functional, organism-based
Rattus norvegicus [12] = assay: Induction of PARP1 cleavage in prostate tissue of Sprague-Dawley rat model of testosterone propionate-induced benign prostatic hyperplasia at 10 mg/kg, ip by Western blot analysis; assay type: functional, organism-based
Rattus norvegicus [13] = assay: Downregulation of Cdk4 expression in prostate tissue of Sprague-Dawley rat model of testosterone propionate-induced benign prostatic hyperplasia at 1 to 10 mg/kg, ip by Western blot analysis; assay type: functional, organism-based
Rattus norvegicus [14] = assay: Downregulation of Cyclin D1 expression in prostate tissue of Sprague-Dawley rat model of testosterone propionate-induced benign prostatic hyperplasia at 1 to 10 mg/kg, ip by Western blot analysis; assay type: functional, organism-based
Rattus norvegicus [15] = assay: Downregulation of Cdk2 expression in prostate tissue of Sprague-Dawley rat model of testosterone propionate-induced benign prostatic hyperplasia at 1 to 10 mg/kg, ip by Western blot analysis; assay type: functional, organism-based
Rattus norvegicus [16] = assay: Downregulation of Cyclin E expression in prostate tissue of Sprague-Dawley rat model of testosterone propionate-induced benign prostatic hyperplasia at 1 to 10 mg/kg, ip by Western blot analysis; assay type: functional, organism-based
Rattus norvegicus [17] = assay: Downregulation of PCNA expression in prostate tissue of Sprague-Dawley rat model of testosterone propionate-induced benign prostatic hyperplasia at 1 to 10 mg/kg, ip by Western blot analysis; assay type: functional, organism-based
Rattus norvegicus [18] = assay: Downregulation of PCNA mRNA expression in prostate tissue of Sprague-Dawley rat model of testosterone propionate-induced benign prostatic hyperplasia at 1 mg/kg, ip by qRT-PCR method; assay type: functional
Rattus norvegicus [19] = assay: Downregulation of PCNA mRNA expression in prostate tissue of Sprague-Dawley rat model of testosterone propionate-induced benign prostatic hyperplasia at 10 mg/kg, ip by qRT-PCR method; assay type: functional
Rattus norvegicus [20] = assay: Downregulation of PCNA […] expression in prostate tissue of Sprague-Dawley rat model of testosterone propionate-induced benign prostatic hyperplasia at 1 to 10 mg/kg, ip by immunohistochemical analysis; assay type: functional, organism-based
BPH-1 [21] = assay: Cytotoxicity against human BPH1 cells at 62.5 to 1000 uM by MTT assay; assay type: functional, cell-based
BPH-1 [22] = assay: Downregulation of PCNA expression in human BPH1 cells at 125 to 500 uM after 24 hrs by immunoblot analysis; assay type: functional, cell-based
[23] = molecular target: Proliferating cell nuclear antigen (Homo sapiens) (UniProt P12004); assay: Inhibition of PCNA-mediated cell cycle progression in human BPH-1 cells assessed as reduction in cdk4 level at 125 to 500 uM after 24 hrs by immunoblot analysis; assay type: cell-based
Sequence of Proliferating cell nuclear antigen (Homo sapiens) (P12004 whole entry): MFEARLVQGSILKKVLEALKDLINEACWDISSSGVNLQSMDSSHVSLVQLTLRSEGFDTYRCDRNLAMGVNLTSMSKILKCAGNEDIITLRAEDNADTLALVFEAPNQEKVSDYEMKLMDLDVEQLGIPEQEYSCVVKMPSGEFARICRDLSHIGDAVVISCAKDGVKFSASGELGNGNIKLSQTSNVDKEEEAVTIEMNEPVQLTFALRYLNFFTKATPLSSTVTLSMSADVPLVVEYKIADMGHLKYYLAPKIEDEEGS

[24] = molecular target: Proliferating cell nuclear antigen (Homo sapiens) (UniProt P12004); assay: Inhibition of PCNA-mediated cell cycle progression in human BPH-1 cells assessed as reduction in cyclin D level at 250 to 500 uM after 24 hrs by immunoblot analysis; assay type: cell-based
Rattus norvegicus [25] = assay: Suppression of prostate tissue weight in Sprague-Dawley rat model of testosterone propionate-induced benign prostatic hyperplasia at 10 mg/kg, po relative to control; assay type: functional
Rattus norvegicus [26] = assay: Suppression of serum DHT level in Sprague-Dawley rat model of testosterone propionate-induced benign prostatic hyperplasia at 10 mg/kg, po by ELISA; assay type: functional, organism-based
Rattus norvegicus [27] = assay: Suppression of 5-alpha reductase2 mRNA expression in Sprague-Dawley rat model of testosterone propionate-induced benign prostatic hyperplasia at 10 mg/kg, po by qRT-PCR method; assay type: functional, organism-based
Rattus norvegicus [28] = assay: Downregulation of prostate Bcl2 expression in Sprague-Dawley rat model of testosterone propionate-induced benign prostatic hyperplasia at 10 mg/kg, po by Western blot analysis; assay type: functional, organism-based
Rattus norvegicus [29] = assay: Downregulation of prostate Bcl-xL expression in Sprague-Dawley rat model of testosterone propionate-induced benign prostatic hyperplasia at 10 mg/kg, po by Western blot analysis; assay type: functional, organism-based
Rattus norvegicus [30] = assay: Induction of PARP1 cleavage in prostate tissue of Sprague-Dawley rat model of testosterone propionate-induced benign prostatic hyperplasia at 10 mg/kg, po by Western blot analysis; assay type: functional, organism-based

Which results are given for `CC1(C)CC[C@]2(C(=O)O)CC[C@]3(C)C(=CC[C@@H]4[C@@]5(C)CC[C@H](O)C(C)(C)[C@@H]5CC[C@]43C)[C@@H]2C1` [OLEANOLIC_ACID]?
inhibition in vivo at 1 mg/kg (Rattus norvegicus [1]): 30.9%; inhibition in vivo at 10 mg/kg (Rattus norvegicus [2]): 31.2%; Activity [3]: Non-Toxic; Activity [4]: Non-Toxic; Activity [5]: Non-Toxic; inhibition (Rattus norvegicus [6]): Active; inhibition (Rattus norvegicus [7]): Active; inhibition in vivo at 1 mg/kg (Rattus norvegicus [8]): 48%; inhibition in vivo at 10 mg/kg (Rattus norvegicus [9]): 54.8%; Activity (Rattus norvegicus [10]): Active; Activity (Rattus norvegicus [11]): Active; Activity (Rattus norvegicus [12]): Active; Activity (Rattus norvegicus [13]): Active; Activity (Rattus norvegicus [14]): Active; Activity (Rattus norvegicus [15]): Active; Activity (Rattus norvegicus [16]): Active; Activity (Rattus norvegicus [17]): Active; Activity (Rattus norvegicus [18]): 54.89%; Activity (Rattus norvegicus [19]): 71.16%; Activity (Rattus norvegicus [20]): Active; Activity (BPH-1 [21]): Active; Activity (BPH-1 [22]): Active; inhibition [23]: Active; inhibition [24]: Active

Which results are given for `CC(C)(C)NC(=O)[C@H]1CC[C@H]2[C@@H]3CC[C@H]4NC(=O)C=C[C@]4(C)[C@H]3CC[C@]12C` [FINASTERIDE]?
inhibition in vivo at 10 mg/kg (Rattus norvegicus [25]): 32.5%; Activity (Rattus norvegicus [26]): Active; inhibition (Rattus norvegicus [27]): Active; Activity (Rattus norvegicus [28]): Active; Activity (Rattus norvegicus [29]): Active; Activity (Rattus norvegicus [30]): Active
